By EC50 is commonly meant the midpoint of the concentration-response curve.

The first test relates to PD-1/PD-L1 interaction. Description: Cell based PD-1/PD-L1 NFAT reporter assay. As to conditions: Homo sapiens, 6 h, PD-1/NFAT-Reporter-Jurkat cells co-cultured with TCR activator/PD-L1-CHO cells; 6 hour incubation; luciferase; calibrated to Atezolizumab 10 nM; read-out: Absolute EC50. More on the design: species or system human. As for the experimental part:
Cell Based PD-1/PD-L1 NFAT Reporter Assay
Compounds of the present patent were tested in a cell based PD-1/PD-L1 NFAT reporter assay.
The cell-based luciferase reporter assay is used for monitoring the PD-1/PD-L1 inhibitor by characterizing the biological activity of PD-1: PD-L1 interactions in cellular context. PD-1/NFAT-Reporter-Jurkat cells stably over-expressing human PD-1 with NFAT reporter are used as effector cells. TCR activator/PD-L1—CHO cells over-expressing PD-L1 and an engineered T cell receptor (TCR) activator are used as target cells. When these two cells are co-cultivated, TCR complexes on effector cells are activated by TCR activator on target cells, resulting in expression of the NFAT luciferase reporter. However, PD1 and PD-L1 (or PD-L2) ligation prevents TCR activation and suppresses the NFAT-responsive luciferase activity. This inhibition can be specifically reversed by anti-PD1 or anti-PD-L1 inhibitors. PD1/PD-L1 inhibitors block PD1:PD-L1 interaction and promote TCR activation, resulting in reactivation of the NFAT responsive luciferase reporter.
PD-1/NFAT—Reporter—Jurkat cell (Cat: 60535) and TCR activator/PD-L1—CHO cell (Cat: 60536) were purchased from BPS Bioscience. Anti-human PD-L1 antibody (Atezolizumab, Cat: A2004) was purchased from Selleck; luciferase reporter gene expression detection kit (ONE-Glo™ Luciferase Assay System, Cat: E6120) was purchased from Promega; multifunction plate reader (SpectraMax i3x) was purchased from Molecular Devices.
PD-1/NFAT—Reporter—Jurkat cells and TCR activator/PD-L1—CHO cells were cultured in recommended media respectively.
Harvest TCR activator/PD-L1-CHO cells from culture and seed cells at a density of 35,000 cells per well into 96-well microplate in 100 µl of growth medium. Incubate cells at 37° C. in a CO2 incubator overnight. Next day, discard the culture media, add diluted compound in assay medium for 30 min. Anti-PD-L1 antibody (Atezolizumab, final concentration 10 nM) and 0.1% DMSO were the positive and negative control, respectively. Harvest the PD-1/NFAT-reporter-Jurkat cells by centrifugation and add to the wells. After 6 hour incubation, perform luciferase assay using the ONE-Glo™ Luciferase Assay System, following the manufacturer's assay protocol.
Anti-PD-L1 antibody (Atezolizumnab, 10 nM) was used as positive control to calibrate the inhibition rate using the following equation: % inhibition=(Sample luminescence/Average vehicle group luminescence−1)/(Average PD-L1 group luminescence/Average vehicle group luminescence−1)×100%.
Background: Reporter assays use an easily measured gene product as a stand-in for the process of interest.
With `N#Cc1cc(COc2cc(OCc3cccc(-c4cccc5c4cnn5CCCN4CC[C@@H](O)C4)c3Br)c(Cl)cc2CN[C@@H](CO)C(=O)O)ccn1` [Compound 1], the concentration giving a half-maximal response (EC50) is 340 nM.
For the molecule `N#Cc1cncc(COc2cc(OCc3cccc(-c4cccc5c4ccn5CCCN4CC[C@@H](O)C4)c3Br)c(Cl)cc2CN[C@@H](CO)C(=O)O)c1` [Compound 3], the concentration giving a half-maximal response (EC50) is 2380 nM.
Regarding `Cc1nn(CCCN2CC[C@@H](O)C2)c2cccc(-c3cccc(COc4cc(OCc5cncc(C#N)c5)c(CN[C@@H](CO)C(=O)O)cc4Cl)c3Br)c12` [Compound 4], the EC50 came to 5490 nM.
Consider `N#Cc1cncc(COc2cc(OCc3cccc(-c4cccc5c4cnn5CCCN4CCC(O)CC4)c3Br)c(Cl)cc2CN[C@@H](CO)C(=O)O)c1` [Compound 6], for which the 50% effective concentration (EC50) was determined as 266 nM.
For the molecule `CC(CO)(CO)NCc1cc(Cl)c(OCc2cccc(-c3cccc4c3cnn4CCCCN3CC[C@@H](O)C3)c2Br)cc1OCc1cncc(C#N)c1` [Compound 7], the EC50 is 338 nM.
For the molecule `N#Cc1cncc(COc2cc(OCc3cccc(-c4cccc5c4cnn5CCCCCN4CC[C@@H](O)C4)c3Br)c(Cl)cc2CN[C@@H](CO)C(=O)O)c1` [Compound 9], the EC50 is 367 nM.
In the case of `CC(CO)(NCc1cc(Cl)c(OCc2cccc(-c3cccc4c3cnn4CCCN3CC[C@@H](O)C3)c2Br)cc1OCc1cncc(C#N)c1)C(=O)O` (stereo partly drawn) [Compound 10], the EC50 is 412 nM.
Still for that read-out and setting: to `CC(CO)(NCc1cc(Cl)c(OCc2cccc(-c3cccc4c3cnn4CCCCN3CC[C@@H](O)C3)c2Br)cc1OCc1cncc(C#N)c1)C(=O)O` (stereo partly drawn) [Compound 12] belongs 289 nM.
Still for that read-out and setting: to `CC(CO)(CO)NCc1cc(Cl)c(OCc2cccc(-c3cccc4c3cnn4CCCN3CCC(O)CC3)c2Br)cc1OCc1cncc(C#N)c1` [Compound 13] belongs 242 nM; to `CC(CO)(CO)NCc1cc(Cl)c(OCc2cccc(-c3cccc4c3cnn4[C@H]3CC[C@H](N4CC[C@@H](O)C4)CC3)c2Br)cc1OCc1cncc(C#N)c1` [Compound 14], 323 nM.
Consider `CC(CO)(CO)NCc1cc(Cl)c(OCc2cccc(-c3cccc4c3cnn4CCCCN(CCO)CCO)c2Br)cc1OCc1cncc(C#N)c1` [Compound 15], for which the 50% effective concentration (EC50) was found to be 3240 nM.
As for `CC(CO)(CO)NCc1cc(Cl)c(OCc2cccc(-c3cccc4c3cnn4CCCCNCCO)c2Br)cc1OCc1cncc(C#N)c1` [Compound 16], the EC50 was 9360 nM.
For `CC1(C)OCC(N2CCC(n3ncc4c(-c5cccc(COc6cc(OCc7cncc(C#N)c7)c(CN[C@@H](CO)C(=O)O)cc6Cl)c5Br)cccc43)CC2)CO1` [Compound 17], the EC50 is 1760 nM.
On the same count and under the same terms, under `C[C@@](CO)(NCc1cc(Cl)c(OCc2cccc(-c3cccc4c3cnn4CCCN3CC[C@@H](O)C3)c2Br)cc1OCc1cncc(C#N)c1)C(=O)O` [Compound 18] stands 235 nM; under `N#Cc1cncc(COc2cc(OCc3cccc(-c4cccc5c4cnn5CC4CCC(N5CC[C@@H](O)C5)CC4)c3Br)c(Cl)cc2CN[C@@H](CO)C(=O)O)c1` (stereo partly drawn) [Compound 19], 764 nM.
Regarding `CC(CO)(CO)NCc1cc(Cl)c(OCc2cccc(-c3cncc4c3cnn4CCCCN3CC[C@@H](O)C3)c2Br)cc1OCc1cncc(C#N)c1` [Compound 21], the EC50 amounted to 3540 nM.
For the molecule `N#Cc1cncc(COc2cc(OCc3cccc(-c4cccc5c4cnn5C4CCN(C(CO)CO)CC4)c3Br)c(Cl)cc2CN[C@@H](CO)C(=O)O)c1` [Compound 22], the EC50 amounted to 1130 nM.
For the molecule `N#Cc1cncc(COc2cc(OCc3cccc(-c4cccc5c4cnn5CCCCN4CCC[C@H]4C(=O)O)c3Br)c(Cl)cc2CN[C@@H](CO)C(=O)O)c1` [Compound 23], the EC50 was 608 nM.
On to `N#Cc1cncc(COc2cc(OCc3cccc(-c4cccc5c4cnn5CCCN4CC[C@@H](O)C4)c3C3CC3)c(Cl)cc2CN[C@@H](CO)C(=O)O)c1` [Compound 24], for which the concentration for a half-maximal effect (EC50) is more than 10000 nM.
The same measure, in the same setting: to `Cc1c(COc2cc(OCc3cncc(C#N)c3)c(CNC(C)(CO)CO)cc2Cl)cccc1-c1cccc2c1cnn2CCCN1CC[C@@H](O)C1` [Compound 25] belongs 138 nM; to `Cc1c(COc2cc(OCc3cncc(C#N)c3)c(CN[C@@H](CO)C(=O)O)cc2Cl)cccc1-c1ccnc2c1cnn2CCCCN1CC[C@@H](O)C1` [Compound 26], 1830 nM.
Same read-out and setting: under `Cc1c(COc2cc(OCc3cncc(C#N)c3)c(CN[C@@H](CO)C(=O)O)cc2Cl)cccc1-c1cccc2c1cnn2CCCCN1CC[C@@H](O)C1` [Compound 27] stands 643 nM; under `N#Cc1cncc(COc2cc(OCc3cccc(-c4cccc5c4cnn5CCCCN4CC[C@@H](O)C4)c3[N+](=O)[O-])c(Cl)cc2CN[C@@H](CO)C(=O)O)c1` [Compound 28], 726 nM; under `N#Cc1cncc(COc2cc(OCc3cccc(-c4cccc5c4cnn5CCCCN4CC[C@@H](O)C4)c3N)c(Cl)cc2CN[C@@H](CO)C(=O)O)c1` [Compound 29], more than 1100 nM.
On the same count and under the same terms, to `CN(C)c1c(COc2cc(OCc3cncc(C#N)c3)c(CN[C@@H](CO)C(=O)O)cc2Cl)cccc1-c1cccc2c1cnn2CCCCN1CC[C@@H](O)C1` [Compound 31] belongs more than 10000 nM; to `N#CCOc1cc(OCc2cccc(-c3cccc4c3cnn4CCCCN3CC[C@@H](O)C3)c2Br)c(Cl)cc1CN[C@@H](CO)C(=O)O` [Compound 34], 5780 nM; to `N#CCCCOc1cc(OCc2cccc(-c3cccc4c3cnn4CCCCN3CC[C@@H](O)C3)c2Br)c(Cl)cc1CN[C@@H](CO)C(=O)O` [Compound 35], 1540 nM.
Turning to `N#CCCCCOc1cc(OCc2cccc(-c3cccc4c3cnn4CCCCN3CC[C@@H](O)C3)c2Br)c(Cl)cc1CN[C@@H](CO)C(=O)O` [Compound 36], the EC50 turned out to be 2340 nM.
As for `N#CCCCCCOc1cc(OCc2cccc(-c3cccc4c3cnn4CCCCN3CC[C@@H](O)C3)c2Br)c(Cl)cc1CN[C@@H](CO)C(=O)O` [Compound 37], the concentration giving a half-maximal response (EC50) was determined as 1920 nM.
Turning to `NC(=O)COc1cc(OCc2cccc(-c3cccc4c3cnn4CCCCN3CC[C@@H](O)C3)c2Br)c(Cl)cc1CN[C@@H](CO)C(=O)O` [Compound 38], the EC50 was determined as 7640 nM.
Take `Cc1cncc(COc2cc(OCc3cccc(-c4cccc5c4cnn5CCCCN4CC[C@@H](O)C4)c3Br)c(Cl)cc2CN[C@@H](CO)C(=O)O)c1` [Compound 39]: the EC50 is more than 10000 nM.
On the same count and under the same terms, to `COc1cncc(COc2cc(OCc3cccc(-c4cccc5c4cnn5CCCCN4CC[C@@H](O)C4)c3Br)c(Cl)cc2CN[C@@H](CO)C(=O)O)c1` [Compound 40] belongs more than 10000 nM; to `O=C(O)[C@H](CO)NCc1cc(Cl)c(OCc2cccc(-c3cccc4c3cnn4CCCCN3CC[C@@H](O)C3)c2Br)cc1OCc1cncc(Cl)c1` [Compound 41], 606 nM.
Still for that read-out and setting: under `Cn1cc(COc2cc(OCc3cccc(-c4cccc5c4cnn5CCCCN4CC[C@@H](O)C4)c3Br)c(Cl)cc2CN[C@@H](CO)C(=O)O)cn1` [Compound 42] stands more than 10000 nM.
As for `N#Cc1cc(C#N)cc(COc2cc(OCc3cccc(-c4cccc5c4cnn5CCCCN4CC[C@@H](O)C4)c3Br)c(Cl)cc2CN[C@@H](CO)C(=O)O)c1` [Compound 44], the EC50 worked out at 153 nM.

Still in this test, the particulars now being: PD-1/NFAT-Reporter-Jurkat cells co-cultured with TCR activator/PD-L1-CHO cells; 6 hour incubation; luciferase; calibrated to Atezolizumab 10 nM; read-out: Absolute EC50.
`N#Cc1cncc(COc2cc(OCc3cccc(-c4cccc5c4cnn5CCCN4CC[C@@H](O)C4)c3Br)c(Cl)cc2CN[C@@H](CO)C(=O)O)c1` [Compound 2]: the EC50 came to 310 nM.
On the same count and under the same terms, under `N#Cc1cncc(COc2cc(OCc3cccc(-c4cccc5c4cnn5CCCCN4CC[C@@H](O)C4)c3Br)c(Cl)cc2CN[C@@H](CO)C(=O)O)c1` [Compound 5] stands 241 nM; under `N#Cc1cncc(COc2cc(OCc3cccc(-c4cccc5c4cnn5CCCCN4CC[C@@H](O)C4)c3Br)c(Cl)cc2CN[C@@H](CO)C(=O)O)c1` [Compound 8], 1160 nM; under `CC(CO)(CO)NCc1cc(Cl)c(OCc2cccc(-c3cccc4c3cnn4CCCN3CC[C@@H](O)C3)c2Br)cc1OCc1cncc(C#N)c1` [Compound 11], 142 nM.
As for `N#Cc1cncc(COc2cc(OCc3cccc(-c4cccc5c4cnn5CC4CCC(N5CC[C@@H](O)C5)CC4)c3Br)c(Cl)cc2CN[C@@H](CO)C(=O)O)c1` (stereo partly drawn) [Compound 20], the EC50 came to 876 nM.
On to `N#Cc1cncc(COc2cc(OCc3cccc(-c4cccc5c4cnn5CCCN4CC[C@@H](O)C4)c3Br)c(Cl)cc2CN[C@@H](CO)C(=O)O)c1` [Compound 32], for which the EC50 is 724 nM.
For the molecule `CC(CO)(CO)NCc1cc(Cl)c(OCc2cccc(-c3cccc4c3cnn4CCCN3CC[C@@H](O)C3)c2Br)cc1OCc1cncc(C#N)c1` [Compound 33], the EC50 is more than 370 nM.
